{"source": "paper PMC8343220", "about": "“The selectivity of α‐adrenoceptor agonists for the human α1A, α1B, and α1D‐adrenoceptors” (Pharmacology Research & Perspectives, 2021)", "key": {"[1]": {"molecular_target": "T1, human α1D‐adrenoceptor (full length) (Homo sapiens, UniProt P25100)", "T1 construct": "human α1D‐adrenoceptor (full length) were used; expressed in transfected cells; host or cells: CHO-K1", "T1 sequence (P25100 1-572)": "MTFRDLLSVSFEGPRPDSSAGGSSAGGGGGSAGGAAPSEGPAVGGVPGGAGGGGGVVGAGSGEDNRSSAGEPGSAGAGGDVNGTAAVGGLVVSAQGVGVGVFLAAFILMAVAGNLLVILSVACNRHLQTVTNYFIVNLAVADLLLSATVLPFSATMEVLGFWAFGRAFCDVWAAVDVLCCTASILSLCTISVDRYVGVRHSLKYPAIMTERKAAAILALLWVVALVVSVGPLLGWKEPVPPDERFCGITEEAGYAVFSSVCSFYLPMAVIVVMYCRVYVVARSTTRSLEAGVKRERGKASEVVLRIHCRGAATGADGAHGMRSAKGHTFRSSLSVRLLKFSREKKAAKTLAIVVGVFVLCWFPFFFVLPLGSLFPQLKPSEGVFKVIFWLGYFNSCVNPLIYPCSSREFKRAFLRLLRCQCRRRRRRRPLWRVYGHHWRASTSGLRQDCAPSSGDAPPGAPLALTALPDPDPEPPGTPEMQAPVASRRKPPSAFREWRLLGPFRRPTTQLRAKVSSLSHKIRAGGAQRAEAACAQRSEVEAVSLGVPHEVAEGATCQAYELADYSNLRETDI", "test": "ERK1/2‐phosphorylation (Surefire Alphascreen), CHO‐α1D cells", "assay_type": "cell-based"}, "human α1A‐adrenoceptor [2]": {"molecular_target": "T2, human α1A‐adrenoceptor (Homo sapiens, UniProt P35348)", "T2 construct": "expressed in transfected cells; host or cells: CHO-K1", "T2 sequence (P35348 1-466)": "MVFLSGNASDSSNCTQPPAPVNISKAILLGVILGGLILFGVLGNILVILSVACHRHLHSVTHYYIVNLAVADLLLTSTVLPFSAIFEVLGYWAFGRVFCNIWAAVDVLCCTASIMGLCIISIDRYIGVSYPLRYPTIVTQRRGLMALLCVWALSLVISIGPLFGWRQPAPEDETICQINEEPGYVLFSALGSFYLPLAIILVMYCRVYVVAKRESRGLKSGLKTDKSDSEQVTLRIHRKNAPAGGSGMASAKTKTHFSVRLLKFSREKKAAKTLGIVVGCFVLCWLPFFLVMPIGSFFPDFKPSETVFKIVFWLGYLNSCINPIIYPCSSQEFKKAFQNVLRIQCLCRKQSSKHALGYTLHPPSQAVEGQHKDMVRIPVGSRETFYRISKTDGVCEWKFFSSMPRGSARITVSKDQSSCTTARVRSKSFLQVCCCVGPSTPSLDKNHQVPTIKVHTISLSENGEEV", "test": "Intracellular free calcium mobilization, CHO‐α1A cells", "assay_type": "cell-based"}, "[3]": {"molecular_target": "T1, human α1D‐adrenoceptor (full length)", "test": "^3H‐cAMP accumulation, CHO‐α1D cells", "assay_type": "cell-based", "conditions": "cAMP accumulation without forskolin"}, "[4]": {"molecular_target": "T1, human α1D‐adrenoceptor (full length)", "test": "Intracellular free calcium mobilization, CHO‐α1D cells", "assay_type": "cell-based"}, "human α1B‐adrenoceptor [5]": {"molecular_target": "T3, human α1B‐adrenoceptor (Homo sapiens, UniProt P35368)", "T3 construct": "expressed in transfected cells; host or cells: CHO-K1", "T3 sequence (P35368 1-520)": "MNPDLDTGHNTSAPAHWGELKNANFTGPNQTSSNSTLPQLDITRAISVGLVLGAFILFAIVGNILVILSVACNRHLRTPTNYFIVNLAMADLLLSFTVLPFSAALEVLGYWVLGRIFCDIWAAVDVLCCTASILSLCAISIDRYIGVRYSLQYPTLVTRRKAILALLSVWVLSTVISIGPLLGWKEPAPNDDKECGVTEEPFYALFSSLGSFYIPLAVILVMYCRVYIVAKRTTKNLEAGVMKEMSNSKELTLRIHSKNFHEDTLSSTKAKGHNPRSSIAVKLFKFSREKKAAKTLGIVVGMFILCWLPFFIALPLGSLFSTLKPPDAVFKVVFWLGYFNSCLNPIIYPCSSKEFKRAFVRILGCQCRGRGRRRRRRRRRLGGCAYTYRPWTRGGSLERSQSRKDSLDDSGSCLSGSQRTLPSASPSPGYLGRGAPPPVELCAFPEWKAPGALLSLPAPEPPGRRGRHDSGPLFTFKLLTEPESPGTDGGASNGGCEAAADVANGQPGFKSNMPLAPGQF", "test": "^3H‐cAMP accumulation in the presence of 10 μM forskolin, CHO‐α1B cells", "assay_type": "cell-based", "conditions": "CHO‐α1B cells"}, "[6]": {"molecular_target": "T1, human α1D‐adrenoceptor (full length)", "test": "^3H‐prazosin whole‐cell radioligand binding, CHO‐α1D cells"}, "human α1A‐adrenoceptor [7]": {"molecular_target": "T2, human α1A‐adrenoceptor", "test": "^3H‐prazosin whole‐cell radioligand binding, CHO‐α1A cells"}, "human α1A‐adrenoceptor [8]": {"molecular_target": "T2, human α1A‐adrenoceptor", "test": "^3H‐cAMP accumulation, CHO‐α1A cells", "assay_type": "cell-based", "conditions": "CHO‐α1A cells"}, "human α1A‐adrenoceptor [9]": {"molecular_target": "T2, human α1A‐adrenoceptor", "test": "^3H‐cAMP accumulation in the presence of 10 μM forskolin, CHO‐α1A cells", "assay_type": "cell-based", "conditions": "CHO‐α1A cells"}, "human α1B‐adrenoceptor [10]": {"molecular_target": "T3, human α1B‐adrenoceptor", "test": "^3H‐prazosin whole‐cell radioligand binding, CHO‐α1B cells"}, "human α1A‐adrenoceptor [11]": {"molecular_target": "T2, human α1A‐adrenoceptor", "test": "ERK1/2‐phosphorylation (Surefire Alphascreen), CHO‐α1A cells", "assay_type": "cell-based"}, "human α1B‐adrenoceptor [12]": {"molecular_target": "T3, human α1B‐adrenoceptor", "test": "Intracellular free calcium mobilization, CHO‐α1B cells", "assay_type": "cell-based"}, "[13]": {"molecular_target": "T1, human α1D‐adrenoceptor (full length)", "test": "^3H‐cAMP accumulation in the presence of 10 μM forskolin, CHO‐α1D cells", "assay_type": "cell-based", "conditions": "CHO‐α1D cells"}, "human α1B‐adrenoceptor [14]": {"molecular_target": "T3, human α1B‐adrenoceptor", "test": "^3H‐cAMP accumulation, CHO‐α1B cells", "assay_type": "cell-based", "conditions": "CHO‐α1B cells; response at 100 µM ligand (no EC50 given)"}, "human α1B‐adrenoceptor [15]": {"molecular_target": "T3, human α1B‐adrenoceptor", "test": "ERK1/2‐phosphorylation (Surefire Alphascreen), CHO‐α1B cells", "assay_type": "cell-based"}, "[16]": {"conditions": "fold increase of the forskolin response"}}, "note": "Marks after values point to notes of the source that are not given here."}
{"smiles": "CC(N)C(O)c1ccc(O)c(O)c1", "note": "(stereo not drawn) [α‐Methylnorepinephrine]", "values": [{"measurement": "ERK1/2‐phosphorylation % PDBu", "setting": "[1]", "result": "27.7 ± 4.9", "unit": "%"}, {"measurement": "ERK1/2‐phosphorylation Log EC50", "setting": "[1]", "result": "−5.74 ± 0.11"}, {"measurement": "Intracellular calcium release % ionomycin", "setting": "human α1A‐adrenoceptor [2]", "result": "65.2 ± 2.6", "unit": "%"}, {"measurement": "Intracellular calcium release Log EC50", "setting": "human α1A‐adrenoceptor [2]", "result": "−7.69 ± 0.07"}, {"measurement": "Log efficacy ratio KD /EC50", "setting": "human α1A‐adrenoceptor [2]", "result": 3.37}, {"measurement": "cAMP Log EC50", "setting": "[3]", "result": "No response"}, {"measurement": "Intracellular calcium release % ionomycin", "setting": "[4]", "result": "29.9 ± 3.6", "unit": "%"}, {"measurement": "Intracellular calcium release Log EC50", "setting": "[4]", "result": "−7.02 ± 0.10"}, {"measurement": "Log efficacy ratio KD /EC50", "setting": "[4]", "result": 2.18}, {"measurement": "cAMP accumulation (in presence of forskolin) Fold increase", "setting": "human α1B‐adrenoceptor [5]; [16]", "result": "3.09 ± 0.21", "unit": "fold"}, {"measurement": "cAMP accumulation (in presence of forskolin) Log EC50", "setting": "human α1B‐adrenoceptor [5]; in presence of forskolin", "result": "−5.56 ± 0.05"}, {"measurement": "3H‐prazosin binding Log KD", "setting": "[6]", "result": "−4.84"}, {"measurement": "Affinity selectivity ratio α1A vs α1D", "setting": "[6]", "result": 3.3, "unit": "fold"}, {"measurement": "Affinity selectivity ratio α1B vs α1D", "setting": "[6]", "result": ">69.2", "unit": "fold"}, {"measurement": "Log KD α1D, ^3H‐prazosin whole cell binding", "setting": "[6]", "result": "−4.84 ± 0.14^early plateau"}, {"measurement": "Affinity selectivity ratio α1A vs α1B", "setting": "human α1A‐adrenoceptor [7]", "result": ">20.9", "unit": "fold"}, {"measurement": "Log KD α1A, ^3H‐prazosin whole cell binding", "setting": "human α1A‐adrenoceptor [7]", "result": "−4.32 ± 0.04"}, {"measurement": "cAMP accumulation Log EC50", "setting": "human α1A‐adrenoceptor [8]; 5 h", "result": "−5.09 ± 0.06"}, {"measurement": "cAMP accumulation % forskolin", "setting": "human α1A‐adrenoceptor [8]; % of 10 µM forskolin response", "result": "166.8 ± 7.4", "unit": "%"}, {"measurement": "cAMP accumulation (in presence of forskolin) Log EC50", "setting": "human α1A‐adrenoceptor [9]; 10 μM forskolin", "result": "−5.74 ± 0.10"}, {"measurement": "cAMP accumulation (in presence of forskolin) Fold increase", "setting": "human α1A‐adrenoceptor [9]; [16]", "result": "2.49 ± 0.05", "unit": "fold"}, {"measurement": "Log IC50 α1B, ^3H‐prazosin whole cell binding", "setting": "human α1B‐adrenoceptor [10]", "result": "IC50>−3"}, {"measurement": "ERK1/2‐phosphorylation % PDBu", "setting": "human α1A‐adrenoceptor [11]", "result": "87.5 ± 6.3", "unit": "%"}, {"measurement": "ERK1/2‐phosphorylation Log EC50", "setting": "human α1A‐adrenoceptor [11]", "result": "−6.86 ± 0.12 ^a"}, {"measurement": "Intracellular calcium release % ionomycin", "setting": "human α1B‐adrenoceptor [12]", "result": "69.1 ± 2.6", "unit": "%"}, {"measurement": "Intracellular calcium release Log EC50", "setting": "human α1B‐adrenoceptor [12]", "result": "−8.10 ± 0.11"}, {"measurement": "Log efficacy ratio KD /EC50", "setting": "human α1B‐adrenoceptor [12]", "result": ">5.10"}, {"measurement": "cAMP (in presence of forskolin) Fold increase", "setting": "[13]; [16]", "result": "1.23 ± 0.06"}, {"measurement": "cAMP (in presence of forskolin) Log EC50", "setting": "[13]; in presence of forskolin, log values given negative", "result": "−6.05 ± 0.12"}, {"measurement": "cAMP accumulation % forskolin at 100 µM", "setting": "human α1B‐adrenoceptor [14]", "result": "129.7 ± 20.5", "unit": "%"}, {"measurement": "ERK1/2‐phosphorylation % PDBu", "setting": "human α1B‐adrenoceptor [15]", "result": "90.6 ± 4.4", "unit": "%"}, {"measurement": "ERK1/2‐phosphorylation Log EC50", "setting": "human α1B‐adrenoceptor [15]", "result": "−6.75 ± 0.13"}]}
